Reference: US6207389A, “Methods of controlling T lymphocyte mediated immune responses” (HRC Research and Development Limited Partnership, priority 1995, dated 2001)

Assays:
[1] = tested on: PBMC from a child with recent onset diabetes; assay: Proliferative response, patient cells (Example 6); format: cell-based, human; conditions: 1 μg antigen per culture, 7 days
Method: Replicate cultures of PBMC from a child with recent onset diabetes and a healthy control subject were stimulated with P2267, Tep69, Herpes simplex antigen or a mixture of P2267 and Tep69 (1 μg antigen per culture) as described in Example 3. After 2 days of incubation, one patient cell culture and one healthy control culture were harvested for RNA extraction and measurement of IL2 receptor transcripts by RT-PCR, as described by Cheung et al., (1991), J. Biol. Chem., v. 266, pp. 8667-8670. PCR was used to amplify a 739 bp fragment of IL2R coding sequence from patient and control and also a 430 bp region in the human β-actin gene of patient.
Remaining cultures were incubated for a further 5 days and used to determine proliferative responses as described in Example 3.

[2] = tested on: PBMC from children with recent onset diabetes; assay: Proliferative response of PBMC to peptide fragments in the presence of IL2 (Example 4); format: cell-based, human; conditions: patient PBMC
Method: (§1) Cultures containing 5×10^4 cells were incubated for 7 days at 37° C. in serum-free HL-1 medium (Ventrex, Portland, Me.) containing 1 μg antigen per well for test samples.
(§2) After an overnight pulse of 1 μci ^3 H thymidine, cultures were harvested and submitted to liquid scintillation counting. Proliferation was expressed as cpm ^3 HTdR×10^-3.
Control cultures were stimulated with 1 μg ovalbumin or horse or human albumin. […] A 4 h. pulse with 1 μCi ^3 H thymidine was used.
Each synthetic peptide was tested with PBMC from at least 3 children with recent onset diabetes. Stimulation Index=^3 H Thymidine Incorporation in peptide-stimulated culture in cpm divided by Thymidine incorporation in control culture in cpm.
Peptides corresponding to stretches of the amino acid sequence of human p69 were also synthesised and the proliferative response to patient PBMC cultures to these peptides were similarly tested, in the presence of IL2.

[3] = tested on: PBMC from children with recent onset diabetes; assay: T cell proliferation assay with BSA and rec-p69, patients (Example 3); format: cell-based, human; conditions: 1 μg antigen
Method: as §1
(§3) Control cultures were treated with 1 μg human, chick or horse albumin or an equivalent volume of control recombinant antigen prepared from lysates of E. coli carrying wild type plasmid.
as §2
(§4) A parallel set of cell cultures was incubated with the same test antigens or control agents in the presence of 10 U human IL2.

[4] = tested on: PBMC from healthy subjects; assay: T cell proliferation assay with BSA and rec-p69, healthy subjects (Example 3); format: cell-based, human; conditions: with or without IL2
Method: as §1, §3, §2, §4

[5] = tested on: C57/B6 and SJL mice lymph node cells; assay: Immunization and T cell proliferation assay, non-diabetes prone control mice (Example 11); format: in vivo, mouse; conditions: 50 μg sc in complete Freund's adjuvant
Method: (§5) Recombinant truncated p69 was prepared by expression of a portion of the cDNA of IS4. The cDNA was cut a few nucleotides downstream of the 3' terminal of exon 3 and was subcloned into the PET™ expression system according to the manufacturer's recommendations (Novagen Inc., Madison, Wis.). The truncated protein contains 100 amino acids and is essentially identical with the murine molecule.
(§6) Antigens were injected subcutaneously in complete Freunds' adjuvant, and local lymph nodes and blood samples were collected 10 days later. Triplicate cultures of 2×10^5 lymph node cells were incubated for 5 days in serum-free HGM-af Medium™ (Promo Cell, Heidelberg, Germany) in the presence of 1 μg of protein or synthetic peptide as recall antigen. Six hours before harvesting, 1 μCi ^3 H-thymidine (6.7 Ci/mmol) was added to the wells, and isotope incorporation was analysed by liquid scintillation counting. Values are expressed as mean counts per minute ± standard deviation (mean cpm ± SD).
(§7) Young male NOD mice (H2^G7, IE^-/-) received a single immunization with truncated p69 (as encoded by IS4 cDNA) in complete adjuvant, and antibody and T cell proliferative responses were measured 8-10 days later. MHC disparate C57/B6 (H2^b, IE^-/-) and SJL (H2^s, IE^-/-) mice served as non-diabetes prone controls (FIG. 31).

female NOD mice [6] = assay: IDDM development after immunotherapy with BSA or ABBOS in adjuvant (Example 7); format: in vivo, mouse; conditions: 150 μg BSA or 50 μg ABBOS in incomplete Freund's Adjuvant sc at 5 weeks, ip booster one week later; up to 9 months
Method: (§8) A control group (13 mice) was injected with incomplete Freund's Adjuvant only and a further control group (13 mice) was untreated. A booster injection of the same treatment material was given intraperitoneally one week later.
IDDM development was followed by testing for urine glucose and when urine glucose was detected, blood glucose was then determined.

NOD mice = assay: Serum antibodies to BSA and p69 by fluoroimmunoassay, NOD mice (Example 11); format: in vivo, mouse; conditions: 50 μg sc in complete Freund's adjuvant
Method: (§9) Male non-obese diabetic mice (NOD, 6-7 weeks old) were immunized with 50 μg BSA, ABBOS-short peptide ([…]), recombinant truncated p69 or p69 T cell epitope peptide `Tep69` ([…]) (10). Recombinant truncated p69 was prepared by expression of a portion of the cDNA of IS4. The cDNA was cut a few nucleotides downstream of the 3' terminal of exon 3 and was subcloned into the PET™ expression system according to the manufacturer's recommendations (Novagen Inc., Madison, Wis.).
(§10) Antigens were injected subcutaneously in complete Freunds' adjuvant, and local lymph nodes and blood samples were collected 10 days later. […] Six hours before harvesting, 1 μCi ^3 H-thymidine (6.7 Ci/mmol) was added to the wells, and isotope incorporation was analysed by liquid scintillation counting. Values are expressed as mean counts per minute ± standard deviation (mean cpm ± SD).
(§11) Serum antibodies to BSA and p69 were measured by particle concentration fluoroimmunoassay, as described (11). […] Bound fluorescence was read by an automated ScreenMachine™ instrument (IDEXX, Portland, Me.). Data are expressed in kilofluorescence units relative to a standard mouse serum analyzed in parallel within each assay plate.
(§12) Young male NOD mice (H2^G7, IE^-/-) received a single immunization with truncated p69 (as encoded by IS4 cDNA) in complete adjuvant, and antibody and T cell proliferative responses were measured 8-10 days later. […]

female NOD mice [7] = assay: Circulating IgG anti-BSA antibodies by particle concentration fluoroimmunoassay (Example 7); format: in vivo, mouse; conditions: same treatment; over 34 weeks
Method: as §8
Circulating IgG anti-BSA antibodies were measured over the 34 weeks of the experiment, using the particle concentration fluoroimmunoassay described by the inventors in International Patent Application No. PCT/CA93/000304.

[8] = tested on: PBMC cultures from patients with recent onset diabetes; assay: Proliferative responses to antigen mixtures (Example 5); format: cell-based, human; conditions: patient PBMC, no IL2 (FIG. 9A)
Method: Proliferation assays were conducted as described in Example 3. Control cultures were treated with 1 μg horse albumin or with the peptides P2240, P2269, P2270 or H1029. Results with control antigens were similar and data were pooled.
Responses were expressed as mean of triplicate cultures; variations were <12%. Responses in the absence of IL2 are shown in FIG. 9, Panel A. Parallel cultures were treated with the same antigens and antigen mixtures in the presence of 10U IL2.

[9] = tested on: NOD mice lymph node cells; assay: Immunization and T cell proliferation assay, NOD mice (Example 11); format: in vivo, mouse; conditions: 50 μg sc in complete Freund's adjuvant, recall with 1 μg antigen in vitro
Method: as §5, §6, §7

C57/B6 and SJL mice = assay: Serum antibodies to BSA and p69 by fluoroimmunoassay, control mice (Example 11); format: in vivo, mouse; conditions: 50 μg sc in complete Freund's adjuvant
Method: as §9, §10, §11, §12

Substance: bovine serum albumin [BSA]
- proliferation of patient cells [1]: 6740±480 cpm
- PBMC proliferative response [2]: significantly higher than responses to control antigens or peptides
- proliferative response of patient samples ([3]; absence of IL2): marked proliferative response
- proliferative response of patient samples ([3]; presence of 10 U IL2): increased response
- proliferative response of samples from healthy subjects [4]: no significant proliferative response
- T cell proliferative response after immunisation [5]: vigorous B- and T cell responses
- development of IDDM (female NOD mice [6]): complete prevention of IDDM
- antibody response after immunisation (anti-p69 or anti-BSA) (NOD mice): vigorous B- and T cell responses
- anti-BSA antibody response (female NOD mice [7]): massive antibody response
- PBMC proliferation in the absence of IL2 [8]: gave PBMC proliferation in the absence of IL2
- T cell proliferative response after immunisation [9]: vigorous B- and T cell responses
- antibody response after immunisation (anti-p69 or anti-BSA) (C57/B6 and SJL mice): vigorous B- and T cell responses
